Entries after “also recorded” stand apart in the source; their conditions may differ.
Legend:
RBC ATP pools [1] = assay: Expansion of RBC ATP pools and blood plasma ATP levels after i.p. injection (Table 4); type: in vivo, mouse; settings: for Plasma ATP levels / RBC ATP pools / Plasma [^3 ]ATP levels immediately after [^3 H]adenosine incorporation into whole blood: 5 hours after i.p. injection of 2 ml of 35 mM, CB6F1; for Plasma ATP levels / RBC ATP pools: bioluminometry, citrate-dextrose; for Plasma [^3 ]ATP levels immediately after [^3 H]adenosine incorporation into whole blood: radioactivity corrected by RBC specific radioactivity; for Duration of expansion of RBC ATP pools: after complete adsorption across the peritoneal membrane; for Time at which expansion of RBC ATP pools could be detected: after i.p. injection; for Increase in plasma (extracellular) ATP levels (in words): i.p. administration; for Expansion of RBC ATP pools (in words): i.p. injection, host animals
Protocol: (§1) The mice are anesthetized with ether during the procedure. Plasma or Hanks' (Balanced Salt Solution) BSS media from incubated isolated RBCs (Red Blood Cells) are prepared by centrifugation of whole blood or RBCs in a Beckman microfuge (30 seconds at 8000 xg) and samples of 100 μl are added to 1 ml of ice-cold 7% trichloroacetic acid. Red blood cells are prepared by centrifugation of whole blood (1500 xg for 5 minutes at 4° C.) and removal of plasma and the buffy coat is followed by a wash of the pelleted RBCs (from 250 μl of whole blood) in 5 ml of ice-cold Hanks' BSS. After centrifugations, the RBCs pellet is resuspended in Hanks' BSS to yield a total volume with the original hematocrit (percent of RBCs volume in the whole blood). Aliquots of 20 μl of RBCs suspensions or whole blood are added to 1 ml of ice-cold 7% trichloroacetic acid. Extraction of acid-soluble nucleotides and determinations of ATP levels by luminometry followed procedures discussed hereinabove. Levels of [^3 H]ATP in whole blood, RBCs, plasma, or RBCs incubation media (Hanks' BSS) are determined after incorporation of 250 μCi of [^3 H]adenosine of specific radioactivity of 30 Ci/mmol (1 Ci=3.7×10^10 becquerels) into whole blood or RBC suspensions (250 μl total) followed by immediate trichloroacetic acid extractions as described above. Two dimensional thin layer chromatography on poly(ethylene)imine cellulose with an unlabeled ATP carrier is performed according to Bochner and Ames, J. Biol. Chem., 257, pp. 9759-9769, 1982). For the determination of whole blood or isolated RBC [^3 H]ATP pools, 10 μl of a 1 ml initial trichloroacetic acid extract are chromatographed. Determinations of [^3 H]ATP levels in blood plasma or RBCs incubation media are performed on 300 μl of an initial 1 ml trichloroacetic acid extract which are lyophilized and redissolved in 15 μl of water. After chromatography, the spots corresponding to the ATP carrier are cut, eluted with 0.5 ml of 4 N ammonium hydroxide, and radioactivity determined in 10 ml of scintillation fluid.
Single intraperitoneal injections of 2 ml of 35 mM of AMP or ATP in saline at pH 6.2 into CB6F1 mice result in expansions of RBC ATP pools in these mice (see Table 4).
The expansions of RBC ATP pools after i.p. injections of AMP or ATP could be detected 30 minutes after injections and lasted for approximately 6-8 hours after the nucleotides were completely adsorbed across the peritoneal membrane and into the systemic circulation. The rates of adsorption of intraperitoneal AMP or ATP solutions varied in different strains of mice. […] These plasma ATP levels originate in RBCs since they can be metabolically labeled by [^3 H]adenosine. Plasma ATP pools which originate in the dense granules of blood platelets would not be radioactively labeled under the same conditions (e.g., Holmsen, 1985, Seminars in Hematol, 22, 219-240). The experiments described in Tables 4 and 5 include uptake of [^3 H]adenosine by whole blood (Table 4) or isolated washed RBCs (Table 5 below). In both cases, all the extracellular ATP, determined seconds after the uptake of [^3 H]adenosine, is metabolically labeled.

RBC ATP pools [2] = assay: Stability of expanded RBC ATP pools in washed isolated RBCs in vitro after i.p. injection (Table 5); parameters: species or system mouse; settings: average of two experiments; for Medium (Hanks' BSS) [^3 H]ATP levels immediately after [^3 H]adenosine incorporation into isolated, washed RBCs (at time 0) / ATP levels in the medium (Hanks' BSS): time 0; for ATP levels in the medium (Hanks' BSS): bioluminometry; for RBC ATP pools (37° C.), 0 min / RBC ATP pools (37° C.), 120 min: washed RBCs in Hanks' BSS
Protocol: as §1
Two hour incubations of washed isolated RBCs containing normal or expanded ATP pools in Hanks' BSS result in relatively small decreases in RBC ATP pools with the expanded pools being maintained well above normal levels (Table 5). The expansions of RBC ATP pools after i.p. administration of AMP or ATP in vivo is presumably the result of their dephosphorylation followed by the RBCs uptake of the adenosine which is generated in situ.

Row | SMILES | Plasma ATP levels (RBC ATP pools [1]) [µM] | RBC ATP pools (RBC ATP pools [1]) [mM] | Plasma [^3 ]ATP levels immediately after [^3 H]adenosine incorporation into whole blood (RBC ATP pools [1]) [µM] | Duration of expansion of RBC ATP pools (RBC ATP pools [1]) [h] | Time at which expansion of RBC ATP pools could be detected (RBC ATP pools [1]) [min] | Increase in plasma (extracellular) ATP levels (in words) (RBC ATP pools [1]) | Expansion of RBC ATP pools (in words) (RBC ATP pools [1]) | Medium (Hanks' BSS) [^3 H]ATP levels immediately after [^3 H]adenosine incorporation into isolated, washed RBCs (at time 0) (RBC ATP pools [2]) [µM] | ATP levels in the medium (Hanks' BSS) (RBC ATP pools [2]) [µM] | RBC ATP pools (37° C.), 0 min (RBC ATP pools [2]) [mM] | RBC ATP pools (37° C.), 120 min (RBC ATP pools [2]) [mM]
1 | Nc1ncnc2c1ncn2[C@@H]1O[C@H](COP(=O)(O)O)[C@@H](O)[C@H]1O [AMP, adenosine 5'-monophosphate] | 3.10 ± 0.96 | 1.78 ± 0.32 | 2.86 ± 1.06 | 6 to 8 | 30 | markedly increased; also recorded: several fold increases in plasma (extracellular) ATP levels | yielded expansions of red blood cell (RBC) ATP pools | 1.81 | 2.42 | 1.01 | 0.86
2 | Nc1ncnc2c1ncn2[C@@H]1O[C@H](COP(=O)(O)OP(=O)(O)OP(=O)(O)O)[C@@H](O)[C@H]1O [ATP, adenosine 5'-triphosphate] | 4.94 ± 1.17 | 2.49 ± 0.42 | 5.75 ± 2.05 | 6 to 8 | 30 | markedly increased; also recorded: several fold increases in plasma (extracellular) ATP levels | yielded expansions of red blood cell (RBC) ATP pools | 4.93 | 4.08 | 2.52 | 1.76

From patent publication US5049372A, “Anticancer activities in a host by increasing blood and plasma adenosine 5'-triphosphate (ATP) levels” (priority 1988, dated 1991)
